Results on 51 molecules are retold here after US9249131B2, “Modulators of ATP-binding cassette transporters” (Vertex Pharmaceuticals Incorporated, priority 2003, dated 2016).

The target in this test is T1, ΔF508-CFTR (Homo sapiens, UniProt P13569, DEL508-508).
T1 construct: expressed in transfected cells; host or cells: NIH3T3 mouse fibroblasts stably expressing ΔF508-CFTR for the optical, whole-cell and single-channel assays; Fisher rat epithelial (FRT) cells for Ussing chamber follow-up
The experiment in a line: Assays for ΔF508-CFTR correction and potentiator properties (membrane potential optical and electrophysiological methods). Format: cell-based. As to conditions: CFTR modulation; for % Activity: % Efficacy; for EC50: tested using the above methods. In outline: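 NIH3T3 mouse fibroblasts stably expressing ΔF508-CFTR were used, with membrane potential read by DiSBAC2(3)/CC2-DMPE FRET on VIPR. Correctors: 16 h compound exposure at 37 °C, then activation with forskolin plus genistein in Cl⁻-free medium. Potentiators: cells held 24 h at 27 °C, compound added in Cl⁻-free medium, 2-10 μM forskolin 22 s later (final Cl⁻ 28 mM).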

Structures are written as SMILES.

T1 sequence (P13569 with tags, fused parts or gaps DEL508-508): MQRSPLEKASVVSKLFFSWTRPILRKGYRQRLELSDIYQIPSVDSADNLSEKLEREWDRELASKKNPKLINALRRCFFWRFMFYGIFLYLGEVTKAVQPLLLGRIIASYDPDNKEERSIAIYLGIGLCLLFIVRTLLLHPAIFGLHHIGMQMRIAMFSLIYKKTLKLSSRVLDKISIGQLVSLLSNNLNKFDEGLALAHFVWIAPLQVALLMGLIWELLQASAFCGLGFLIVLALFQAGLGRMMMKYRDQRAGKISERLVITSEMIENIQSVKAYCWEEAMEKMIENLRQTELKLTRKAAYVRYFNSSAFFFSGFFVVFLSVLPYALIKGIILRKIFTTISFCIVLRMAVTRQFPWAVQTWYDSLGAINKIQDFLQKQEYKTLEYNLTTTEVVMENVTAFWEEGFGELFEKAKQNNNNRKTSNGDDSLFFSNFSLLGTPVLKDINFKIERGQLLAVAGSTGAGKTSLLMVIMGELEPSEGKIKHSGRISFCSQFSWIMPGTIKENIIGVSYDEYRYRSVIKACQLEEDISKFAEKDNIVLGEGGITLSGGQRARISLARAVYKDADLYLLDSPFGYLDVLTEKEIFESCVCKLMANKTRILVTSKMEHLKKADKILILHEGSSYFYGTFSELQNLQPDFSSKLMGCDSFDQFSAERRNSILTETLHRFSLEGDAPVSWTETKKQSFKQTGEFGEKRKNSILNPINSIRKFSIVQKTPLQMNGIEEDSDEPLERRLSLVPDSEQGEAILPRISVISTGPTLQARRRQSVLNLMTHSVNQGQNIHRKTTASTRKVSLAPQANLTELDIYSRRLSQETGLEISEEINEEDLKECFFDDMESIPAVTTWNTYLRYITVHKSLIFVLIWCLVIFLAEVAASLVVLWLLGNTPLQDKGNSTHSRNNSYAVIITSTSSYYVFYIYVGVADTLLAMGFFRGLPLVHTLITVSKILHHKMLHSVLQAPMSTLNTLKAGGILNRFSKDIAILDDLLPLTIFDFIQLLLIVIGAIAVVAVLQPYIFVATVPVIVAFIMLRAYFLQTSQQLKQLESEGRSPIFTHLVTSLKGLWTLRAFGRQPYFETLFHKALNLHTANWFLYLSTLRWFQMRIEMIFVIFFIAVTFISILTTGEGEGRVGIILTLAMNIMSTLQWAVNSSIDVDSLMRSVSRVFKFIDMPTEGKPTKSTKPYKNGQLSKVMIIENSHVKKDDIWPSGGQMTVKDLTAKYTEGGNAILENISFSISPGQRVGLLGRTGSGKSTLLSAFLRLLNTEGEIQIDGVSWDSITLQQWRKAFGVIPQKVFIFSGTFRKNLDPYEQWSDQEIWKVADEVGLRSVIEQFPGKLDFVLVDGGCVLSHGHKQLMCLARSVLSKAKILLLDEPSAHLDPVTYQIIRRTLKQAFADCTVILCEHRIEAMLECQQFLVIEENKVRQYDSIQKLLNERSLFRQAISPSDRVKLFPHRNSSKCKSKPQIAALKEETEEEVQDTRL

As for `O=C(Nc1ncc(Cc2ccccc2Cl)o1)c1ccccc1` [compound 195], the “% Activity” value was “++ (“++” means between 25% to 100%)” and the EC50 (commonly the midpoint of the concentration-response curve) is less than 10 µM.
As to `COc1ccc(S(=O)(=O)N2CCN(C(C)C(=O)Nc3nc(-c4ccccc4)c(-c4ccccc4)s3)CC2)cc1` (stereo not drawn) [compound 196], the “% Activity” value is on record as “++ (“++” means between 25% to 100%)” and the EC50 was less than 10 µM.
Take `CC(C(=O)Nc1nc(-c2ccccc2)c(-c2ccccc2)s1)N1CCN(S(=O)(=O)c2ccc(Cl)cc2)CC1` (stereo not drawn) [compound 197]: the “% Activity” value is listed as “++ (“++” means between 25% to 100%)” and the EC50 is less than 10 µM.
As for `Cc1ccc(S(=O)(=O)N2CCN(C(C)C(=O)Nc3nc(-c4ccccc4)c(-c4ccccc4)s3)CC2)cc1` (stereo not drawn) [compound 198], the “% Activity” value is “++ (“++” means between 25% to 100%)” and the 50% effective concentration (EC50) was less than 10 µM.
As to `CC(C(=O)Nc1nc(-c2ccccc2)cs1)N1CCN(S(=O)(=O)c2ccc(Br)cc2)CC1` (stereo not drawn) [compound 199], the “% Activity” value is recorded as “+++ (“+++” means >100%)” and the EC50 was less than 10 µM.
Take `CC[C@@H](C(=O)Nc1ncc(Cc2ccccc2Cl)s1)c1ccccc1` [compound 201]: the “% Activity” value is listed as “+++ (“+++” means >100%)” and the concentration for a half-maximal effect (EC50) is less than 10 µM.
For `CC[C@H](C(=O)Nc1ncc(Cc2ccccc2Cl)s1)c1ccccc1` [compound 202], the “% Activity” value is recorded as “++ (“++” means between 25% to 100%)” and the EC50 was less than 10 µM.
Turning to `CC[C@@H](C(=O)Nc1ncc(Cc2cccc(Cl)c2)s1)c1ccccc1` [compound 203], the “% Activity” value is reported as “++ (“++” means between 25% to 100%)” and the EC50 is less than 10 µM.
The corresponding values for `CC[C@H](C(=O)Nc1ncc(Cc2cccc(Cl)c2)s1)c1ccccc1` [compound 204] are “++ (“++” means between 25% to 100%)” and less than 10 µM.
`CC[C@H](C(=O)Nc1ncc(Cc2ccc(Cl)cc2)s1)c1ccccc1` [compound 205]: the “% Activity” value was “++ (“++” means between 25% to 100%)” and the EC50 was less than 10 µM.
On to `CC(C)CC(=O)Nc1ncc(Cc2ccccc2Cl)s1` [compound 206], for which the “% Activity” value is reported as “++ (“++” means between 25% to 100%)” and the 50% effective concentration (EC50) is less than 10 µM.
Consider `O=C(Nc1ncc(Cc2ccccc2Cl)s1)C1CC1` [compound 207], for which the “% Activity” value is “++ (“++” means between 25% to 100%)” and the 50% effective concentration (EC50) is less than 10 µM.
Take `CCC(=O)Nc1ncc(Cc2ccccc2Cl)s1` [compound 208]: the “% Activity” value was “++ (“++” means between 25% to 100%)” and the EC50 lay within 25 to 60 µM.
The corresponding values for `O=C(Nc1ncc(Cc2ccccc2Cl)s1)C1CCCC1` [compound 209] are “++ (“++” means between 25% to 100%)” and less than 10 µM.
As to `CCCC(=O)Nc1ncc(Cc2ccccc2Cl)s1` [compound 210], the “% Activity” value is “++ (“++” means between 25% to 100%)” and the EC50 lay in the range of 10 to 25 µM.
The corresponding values for `CN(C)C(C(=O)Nc1ncc(Cc2ccccc2Cl)s1)c1ccccc1` (stereo not drawn) [compound 211] are “++ (“++” means between 25% to 100%)” and less than 10 µM.
The corresponding values for `CCN(CC)C(C(=O)Nc1ncc(Cc2ccccc2Cl)s1)c1ccccc1` (stereo not drawn) [compound 212] are “++ (“++” means between 25% to 100%)” and less than 10 µM.
The corresponding values for `CCNC(C(=O)Nc1ncc(Cc2ccccc2Cl)s1)c1ccccc1` (stereo not drawn) [compound 213] are “++ (“++” means between 25% to 100%)” and 10 to 25 µM.
For `O=C(Nc1ncc(Cc2ccccc2Cl)s1)C(c1ccccc1)N1CCOCC1` (stereo not drawn) [compound 214], the “% Activity” value was “++ (“++” means between 25% to 100%)” and the EC50 was 10 to 25 µM.
With `O=C(Nc1ncc(Cc2ccccc2Cl)s1)C(c1ccccc1)N1CCCCC1` (stereo not drawn) [compound 215], the “% Activity” value was “++ (“++” means between 25% to 100%)” and the EC50 was less than 10 µM.
As for `COC(C(=O)Nc1ncc(Cc2ccccc2Cl)s1)c1ccccc1` (stereo not drawn) [compound 216], the “% Activity” value is on record as “++ (“++” means between 25% to 100%)” and the EC50 was in the range of 10 to 25 µM.
The corresponding values for `CNC(C(=O)Nc1ncc(Cc2ccccc2Cl)s1)c1ccccc1` (stereo not drawn) [compound 217] are “++ (“++” means between 25% to 100%)” and 25 to 60 µM.
Take `CCC(NC)C(=O)Nc1ncc(Cc2ccccc2Cl)s1` (stereo not drawn) [compound 218]: the “% Activity” value is “++ (“++” means between 25% to 100%)” and the EC50 fell in the range of 25 to 60 µM.
The corresponding values for `CCC(OC)C(=O)Nc1ncc(Cc2ccccc2Cl)s1` (stereo not drawn) [compound 219] are “++ (“++” means between 25% to 100%)” and 25 to 60 µM.
For the molecule `CCNC(CC)C(=O)Nc1ncc(Cc2ccccc2Cl)s1` (stereo not drawn) [compound 220], the “% Activity” value is “++ (“++” means between 25% to 100%)” and the EC50 lay in the range of 25 to 60 µM.
As to `CCC(C(=O)Nc1ncc(Cc2ccccc2Cl)s1)N(CC)CC` (stereo not drawn) [compound 221], the “% Activity” value is reported as “++ (“++” means between 25% to 100%)” and the EC50 was 10 to 25 µM.
The corresponding values for `CCC(C(=O)Nc1ncc(Cc2ccccc2Cl)s1)N(C)C` (stereo not drawn) [compound 222] are “++ (“++” means between 25% to 100%)” and 25 to 60 µM.
The corresponding values for `CCC(C(=O)Nc1ncc(Cc2ccccc2Cl)s1)N1CCOCC1` (stereo not drawn) [compound 223] are “++ (“++” means between 25% to 100%)” and 25 to 60 µM.
Regarding `CCC(C(=O)Nc1ncc(Cc2ccccc2Cl)s1)N1CCSCC1` (stereo not drawn) [compound 224], the “% Activity” value was “++ (“++” means between 25% to 100%)” and the EC50 is less than 10 µM.
`CCC(C(=O)Nc1ncc(Cc2ccccc2Cl)s1)N1CCCCC1` (stereo not drawn) [compound 225]: the “% Activity” value is “++ (“++” means between 25% to 100%)” and the EC50 was less than 10 µM.
Regarding `Cc1cccc(C(=O)Nc2ncc(-c3ccccc3)s2)c1` [compound 226], the “% Activity” value is on record as “++ (“++” means between 25% to 100%)” and the EC50 was 10 to 25 µM.
`COc1ccccc1-c1csc(NC(=O)c2cccc(Cl)c2)n1` [compound 227]: the “% Activity” value is “++ (“++” means between 25% to 100%)” and the EC50 lay in the range of 10 to 25 µM.
The corresponding values for `Cc1cccc(C(=O)Nc2nc(-c3ccccc3Cl)cs2)c1` [compound 228] are “++ (“++” means between 25% to 100%)” and 10 to 25 µM.
On to `O=C(Nc1nc(-c2ccccc2Cl)cs1)c1cccc(Cl)c1` [compound 229], for which the “% Activity” value is “++ (“++” means between 25% to 100%)” and the EC50 lay in the range of 10 to 25 µM.
In the case of `Cc1ccc(C(=O)Nc2nc(-c3ccccc3Cl)cs2)cc1` [compound 230], the “% Activity” value was “+++ (“+++” means >100%)” and the EC50 is less than 10 µM.
On to `COc1cccc(-c2csc(NC(=O)c3cccc(C)c3)n2)c1` [compound 231], for which the “% Activity” value is given as “+++ (“+++” means >100%)” and the EC50 was 10 to 25 µM.
On to `COc1cccc(-c2csc(NC(=O)c3cccc(Cl)c3)n2)c1` [compound 232], for which the “% Activity” value is on record as “++ (“++” means between 25% to 100%)” and the EC50 is 10 to 25 µM.
Turning to `O=C(Nc1ncc(-c2ccccc2)s1)c1cccc(Cl)c1` [compound 233], the “% Activity” value is on record as “++ (“++” means between 25% to 100%)” and the EC50 was 25 to 60 µM.
The corresponding values for `CCOC(C(=O)Nc1ncc(Cc2ccccc2Cl)s1)c1ccccc1` (stereo not drawn) [compound 234] are “++ (“++” means between 25% to 100%)” and 10 to 25 µM.
The corresponding values for `O=C(Nc1ncc(Cc2ccccc2Cl)s1)C(c1ccccc1)n1cccn1` (stereo not drawn) [compound 235] are “++ (“++” means between 25% to 100%)” and less than 10 µM.
`COc1ccccc1Cc1cnc(NC(=O)C(C)(C)c2ccccc2)s1` [compound 237]: the “% Activity” value is listed as “+++ (“+++” means >100%)” and the EC50 is less than 10 µM.
In the case of `CC(C)(C(=O)Nc1ncc(Cc2ccccc2Cl)s1)c1ccccc1` [compound 238], the “% Activity” value was “+++ (“+++” means >100%)” and the EC50 is less than 10 µM.
For `CCN(C)C(C(=O)Nc1ncc(Cc2ccccc2Cl)s1)c1ccccc1` (stereo not drawn) [compound 239], the “% Activity” value is given as “++ (“++” means between 25% to 100%)” and the EC50 is less than 10 µM.
Turning to `CN(C1CCCCC1)C(C(=O)Nc1ncc(Cc2ccccc2Cl)s1)c1ccccc1` (stereo not drawn) [compound 240], the “% Activity” value is “++ (“++” means between 25% to 100%)” and the EC50 was less than 10 µM.
The corresponding values for `O=C(Nc1ncc(Cc2ccccc2Cl)s1)C(c1ccccc1)N1CCCC1` (stereo not drawn) [compound 241] are “++ (“++” means between 25% to 100%)” and less than 10 µM.
Turning to `CC1CCCN1C(C(=O)Nc1ncc(Cc2ccccc2Cl)s1)c1ccccc1` (stereo not drawn) [compound 242], the “% Activity” value is recorded as “+++ (“+++” means >100%)” and the EC50 is less than 10 µM.
The corresponding values for `CC1CCCN(C(C(=O)Nc2ncc(Cc3ccccc3Cl)s2)c2ccccc2)C1` (stereo not drawn) [compound 243] are “+++ (“+++” means >100%)” and less than 10 µM.
As to `O=C(Nc1ncc(Cc2ccccc2Cl)s1)C(c1ccccc1)N1CCCC(CO)C1` (stereo not drawn) [compound 244], the “% Activity” value was “++ (“++” means between 25% to 100%)” and the EC50 was less than 10 µM.
For the molecule `CCOC(=O)C1CCCN(C(C(=O)Nc2ncc(Cc3ccccc3Cl)s2)c2ccccc2)C1` (stereo not drawn) [compound 245], the “% Activity” value is “++ (“++” means between 25% to 100%)” and the EC50 was less than 10 µM.
Take `CC1CCN(C(C(=O)Nc2ncc(Cc3ccccc3Cl)s2)c2ccccc2)CC1` (stereo not drawn) [compound 246]: the “% Activity” value was “++ (“++” means between 25% to 100%)” and the EC50 was less than 10 µM.
`CCOC(=O)C1CCN(C(C(=O)Nc2ncc(Cc3ccccc3Cl)s2)c2ccccc2)CC1` (stereo not drawn) [compound 247]: the “% Activity” value is “+++ (“+++” means >100%)” and the 50% effective concentration (EC50) is less than 10 µM.
